The values below come from ChEMBL document CHEMBL4406903, “Synthesis of benzopyran derivatives as PPARα and/or PPARγ activators” (Bioorg Med Chem, 2019).

What all share (type): cell-based
Test [1] addresses T1, Peroxisome proliferator-activated receptor gamma (Homo sapiens) (UniProt P37231).
T1 sequence (whole entry): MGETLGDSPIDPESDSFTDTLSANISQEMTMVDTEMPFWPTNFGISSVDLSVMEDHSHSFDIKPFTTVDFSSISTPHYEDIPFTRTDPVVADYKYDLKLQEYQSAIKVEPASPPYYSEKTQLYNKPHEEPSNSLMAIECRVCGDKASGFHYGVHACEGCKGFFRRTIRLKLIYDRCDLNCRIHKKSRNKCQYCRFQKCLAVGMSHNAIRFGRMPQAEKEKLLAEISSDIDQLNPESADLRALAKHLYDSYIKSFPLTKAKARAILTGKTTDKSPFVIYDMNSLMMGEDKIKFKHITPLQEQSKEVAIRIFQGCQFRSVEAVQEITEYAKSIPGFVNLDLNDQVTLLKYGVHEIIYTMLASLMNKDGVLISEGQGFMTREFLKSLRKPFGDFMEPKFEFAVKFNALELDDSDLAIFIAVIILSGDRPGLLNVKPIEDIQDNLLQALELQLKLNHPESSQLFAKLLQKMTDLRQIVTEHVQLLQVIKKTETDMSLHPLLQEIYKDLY
The test is described as follows: Agonist activity at GAL4-fused human PPARgamma expressed in COS7 cells incubated for 24 hrs by luciferase reporter gene assay.

Test [2] deals with T1, Peroxisome proliferator-activated receptor gamma (Homo sapiens). The test is described as follows: Transactivation of GAL4-fused human PPARgamma expressed in COS7 cells assessed as efficacy at 10 uM incubated for 24 hrs by luciferase reporter gene assay relative to rosiglitazone.
Test [3] addresses T2, Peroxisome proliferator-activated receptor alpha (Homo sapiens) (UniProt Q07869).
T2 sequence (whole entry): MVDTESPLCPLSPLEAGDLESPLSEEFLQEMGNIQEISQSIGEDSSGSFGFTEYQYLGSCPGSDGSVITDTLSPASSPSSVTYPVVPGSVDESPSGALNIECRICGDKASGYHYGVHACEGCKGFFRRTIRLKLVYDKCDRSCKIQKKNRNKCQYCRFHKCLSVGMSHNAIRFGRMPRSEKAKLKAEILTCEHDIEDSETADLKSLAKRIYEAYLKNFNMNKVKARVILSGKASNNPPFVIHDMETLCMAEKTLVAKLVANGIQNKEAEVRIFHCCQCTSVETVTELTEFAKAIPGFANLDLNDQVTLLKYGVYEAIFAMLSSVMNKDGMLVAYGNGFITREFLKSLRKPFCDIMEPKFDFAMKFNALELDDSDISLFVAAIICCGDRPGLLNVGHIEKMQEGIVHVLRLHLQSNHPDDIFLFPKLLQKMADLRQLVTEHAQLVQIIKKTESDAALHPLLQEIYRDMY
Kind of test: Transactivation of GAL4-fused human PPARalpha expressed in COS7 cells assessed as efficacy at 10 uM incubated for 24 hrs by luciferase reporter gene assay relative to WY-14643.

Test [4] concerns the target T2, Peroxisome proliferator-activated receptor alpha (Homo sapiens). Kind of test: Agonist activity at GAL4-fused human PPARalpha expressed in COS7 cells incubated for 24 hrs by luciferase reporter gene assay.

The source made the active and inactive calls. No cut-off for these calls is given here.

With `CCCCCC1(C)CC(=O)c2c(ccc(O)c2Cl)O1` (centres undefined), the result in test [1] was Active. In addition, the Efficacy in test [2] came to 30%. In addition, the Efficacy entry in test [3] was “inactive”.

As for `CC(C)(O)CCC1(C)CC(=O)c2cc(O)ccc2O1` (centres undefined), in test [4], the result was Active. Besides, in test [2], the Efficacy entry is “inactive”. The Efficacy in test [3] was determined as 23%.

Turning to `Cc1cccc(Nc2cc(Cl)nc(SCC(=O)O)n2)c1C`, in test [2], the Efficacy result was “inactive”.

Regarding `CC1(CCC(=O)O)CCc2cc(O)ccc2O1` (centres undefined), the outcome in test [4] was Active. Besides, in test [2], the Efficacy result is “inactive”. Moreover, in test [3], the Efficacy was 21%.

As to `C=C(C)CCC1(C)CCc2cc(O)ccc2O1` (centres undefined), in test [4], the result was Active. In addition, the Efficacy result in test [2] is “inactive”. For the same compound, in test [3], the Efficacy stood at 35%.

For `CC(=O)Oc1ccc2c(c1)C(=O)CC(C)(CCC(C)OC(C)=O)O2` (centres undefined), the outcome in test [4] was Active. In test [2], the Efficacy result is “inactive”. Moreover, in test [3], the Efficacy was determined as 40%.

For `CCOC(=O)CCC1(C)CC(=O)c2cc(O)ccc2O1` (centres undefined), the outcome in test [4] was Active. Also, the Efficacy result in test [2] was “inactive”. Besides, the Efficacy in test [3] was 16%.

Consider `COC(=O)CCC1(C)CCc2cc(O)ccc2O1` (centres undefined), for which the result in test [4] was Active. Besides, in test [2], the Efficacy entry was “inactive”. Further, the Efficacy in test [3] is 33%.

Regarding `CC(C)=CCCC1(C)CC(O)c2cc(O)ccc2O1` (centres undefined), the outcome in test [1] and in test [4] was inactive.

`CCCCCC1(C)CC(O)c2cc(O)ccc2O1` (centres undefined): the outcome in test [1] and in test [4] was inactive.

Consider `CC(O)CCC1(C)CC(=O)c2cc(O)ccc2O1` (centres undefined), for which the result in test [4] was Active. Further, the Efficacy entry in test [2] was “inactive”. In addition, the Efficacy in test [3] amounted to 23%.
